Source: patent publication US20250262201A1, “COMPOUNDS AND METHODS USEFUL FOR STABILIZING PHENYLALANINE HYDROXYLASE MUTATIONS” (Agios Pharmaceuticals, Inc., priority 2022, published 2025)
Structures can show the parent of a compound that is named as a salt.

The molecules below were run against T1, human PAH with the R408W mutation (Homo sapiens, UniProt P00439, R408W) (assay: Cell Based Phenylalanine Flux Assay). Conditions: A375 R408W cells, 24 hrs with compound, then 20 μM sepiapterin and 800 μM 13C9,15N-Phenylalanine for 4 hours; 13C-Tyrosine by LC-MS; average where tested multiple times.
T1 construct: expressed in transfected cells
T1 sequence (P00439 1-452 R408W): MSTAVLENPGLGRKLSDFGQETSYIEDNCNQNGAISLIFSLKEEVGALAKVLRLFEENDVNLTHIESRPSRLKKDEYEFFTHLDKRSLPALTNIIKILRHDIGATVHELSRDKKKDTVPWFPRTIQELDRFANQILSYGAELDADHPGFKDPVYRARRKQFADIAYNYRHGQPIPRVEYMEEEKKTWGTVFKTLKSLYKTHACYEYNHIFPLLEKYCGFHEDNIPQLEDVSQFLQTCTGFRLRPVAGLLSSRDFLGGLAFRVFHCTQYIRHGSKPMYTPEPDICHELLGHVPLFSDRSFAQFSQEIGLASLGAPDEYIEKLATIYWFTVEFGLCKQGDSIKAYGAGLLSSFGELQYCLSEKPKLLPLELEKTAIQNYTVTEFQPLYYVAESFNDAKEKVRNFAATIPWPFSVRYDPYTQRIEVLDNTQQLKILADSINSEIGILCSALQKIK
Parameters: scale not given here

SMILES	AC50
Cc1ncoc1C(=O)N1CC(C)c2[nH]cnc2C1c1cc2ccccc2cn1 [(4S, 7S) diastereomer of 3-[7-methyl-5-(4-methyl-1,3-oxazole]	E, E
O=C(c1ocnc1C(F)(F)F)N1CCc2[nH]cnc2C1c1ncc2ccccc2n1 (stereo not drawn)	E, E

Now from value to molecule:

AC50	SMILES
E, E	O=C(c1oc(-c2ncccn2)nc1C(F)F)N1CCc2[nH]cnc2C1c1ncc2ccccc2n1 (stereo not drawn)
E, E	CC(C)(O)c1nc(C(F)F)c(C(=O)N2CCc3[nH]cnc3C2c2ncc3ccccc3n2)o1 (stereo not drawn)

Same assay, conditions: A375 R408W cells, 24 hrs with compound, then 20 μM sepiapterin and 800 μM 13C9,15N-Phenylalanine for 4 hours; 13C-Tyrosine by LC-MS; average where tested multiple times; read-out: AC50

SMILES	AC50 [nM]
O=C(Cc1cncs1)N1CCc2[nH]cnc2C1c1cn2ccccc2n1 (stereo not drawn)	> 5000
O=C(Cc1nc(C(F)(F)F)cs1)N1CCc2[nH]cnc2C1c1cn2ccccc2n1 (stereo not drawn)	1000 to 5000
Cc1nnc(C(=O)N2CC(C)(C)c3[nH]cnc3C2c2cc3ccccc3cn2)o1 (stereo not drawn)	1000 to 5000
Cn1cc(-c2ncc(C(=O)N3CCc4[nH]cnc4C3c3ccc4ccccc4n3)o2)cn1 (stereo not drawn)	1000 to 5000
CN(C)Cc1ccc2c(C(=O)N3CCc4[nH]cnc4C3c3cn4ccccc4n3)cnn2c1 (stereo not drawn)	> 5000
CC(C)(O)c1nnc(C(=O)N2CCc3[nH]cnc3C2c2ncc3ccccc3n2)o1 (stereo not drawn)	> 5000
CN(C)Cc1ccc2c(C(=O)N3CCc4[nH]cnc4C3c3ccc4ccccc4n3)cnn2c1 (stereo not drawn)	> 5000

Results, then the molecule that gave them:

AC50 [nM]	SMILES
> 5000	CN1CCN(c2nnc(C(=O)N3CCc4[nH]cnc4C3c3cn4ccccc4n3)o2)CC1 (stereo not drawn)
1000 to 5000	Cc1nc(NC2CC2)oc1C(=O)N1CCc2[nH]cnc2C1c1ccc2ccccc2n1 (stereo not drawn)
> 5000	O=C(c1nnc(NC2CC2)o1)N1CCc2[nH]cnc2C1c1ccc2ccccc2n1 (stereo not drawn)
1000 to 5000	Cc1nc(C2(O)CC2)oc1C(=O)N1CCc2[nH]cnc2C1c1ccc2ccccc2n1 (stereo not drawn)

Same assay, conditions: A375 cells expressing human R408W PAH; 24 hrs compound incubation; 13C-Tyrosine by LC-MS; average where tested multiple times; read-out: AC50

SMILES	AC50 [nM]
O=C(c1nnc(NC2CC2)o1)N1CCc2[nH]cnc2[C@@H]1c1cc2ccccc2cn1 [Example 371, (S)-(5-(cyclopropylamino)-1,3,4-oxadiazol-2-yl)(4-(isoquinolin-3-yl)-6,7-dihydro-1H-imidazo[4,5-c]pyridin-5(4H)-yl)methanone]	> 5000
Cn1ncnc1C(=O)N1CCc2[nH]cnc2[C@@H]1c1ncc2ccccc2n1 [Example 183, (R)-(1-methyl-1H-1,2,4-triazol-5-yl)(4-(quinazolin-2-yl)-6,7-dihydro-1H-imidazo[4,5-c]pyridin-5(4H)-yl)methanone]	1000 to 5000
O=C(c1cnn2cc(Br)c(Cl)cc12)N1CCc2[nH]cnc2[C@H]1c1cc2ccccc2cn1 [Example 459, (R)-(6-bromo-5-chloropyrazolo[1,5-a]pyridin-3-yl)(4-(isoquinolin-3-yl)-6,7-dihydro-1H-imidazo[4,5-c]pyridin-5(4H)-yl)methanone]	< 500
O=C(c1cn[nH]c1Cl)N1CCc2[nH]cnc2C1c1ccc2ccccc2n1 (stereo in doubt) [Example 124, (R)-(5-chloro-1H-pyrazol-4-yl)(4-(quinolin-2-yl)-6,7-dihydro-1H-imidazo[4,5-c]pyridin-5(4H)-yl)methanone]	500 to 1000
O=C(c1cnc(-c2ccccn2)o1)N1CCc2[nH]cnc2[C@@H]1c1ncc2ccccc2n1 [Example 157, (R)-(2-(pyridin-2-yl)oxazol-5-yl)(4-(quinazolin-2-yl)-6,7-dihydro-1H-imidazo[4,5-c]pyridin-5(4H)-yl)methanone]	> 5000
O=C(CC1(O)CCC1)N1CCc2[nH]cnc2C1c1ccc2ccccc2n1 (stereo in doubt) [Example 60, (S)-2-(1-hydroxycyclobutyl)-1-(4-(quinolin-2-yl)-6,7-dihydro-1H-imidazo[4,5-c]pyridin-5(4H)-yl)ethanone]	1000 to 5000
Cc1ncc(CC(=O)N2CCc3[nH]cnc3[C@H]2c2cc3ccccc3cn2)o1 [Example 372, (R)-1-(4-(isoquinolin-3-yl)-6,7-dihydro-1H-imidazo[4,5-c]pyridin-5(4H)-yl)-2-(2-methyloxazol-5-yl)ethanone]	< 500
O=C(CCc1nccs1)N1CCc2[nH]cnc2[C@H]1c1ncc2ccccc2n1 [Example 273, (S)-1-(4-(quinazolin-2-yl)-6,7-dihydro-1H-imidazo[4,5-c]pyridin-5(4H)-yl)-3-(thiazol-2-yl)propan-1-one]	< 500
CN(C)c1nnc(C(=O)N2CCc3[nH]cnc3[C@H]2c2cc3ccccc3cn2)o1 [Example 366, (R)-(5-(dimethylamino)-1,3,4-oxadiazol-2-yl)(4-(isoquinolin-3-yl)-6,7-dihydro-1H-imidazo[4,5-c]pyridin-5(4H)-yl)methanone]	< 500
O=C(Cc1cnn2ccccc12)N1CCc2[nH]cnc2[C@H]1c1cc2ccccc2cn1 [Example 375, (R)-1-(4-(isoquinolin-3-yl)-6,7-dihydro-1H-imidazo[4,5-c]pyridin-5(4H)-yl)-2-(pyrazolo[1,5-a]pyridin-3-yl)ethanone]	< 500
CC(C)(O)c1nc(C(F)F)c(C(=O)N2CCc3[nH]cnc3[C@H]2c2cc3ccccc3nn2)o1 [Example 209, (S)-(4-(cinnolin-3-yl)-6,7-dihydro-1H-imidazo[4,5-c]pyridin-5(4H)-yl)(4-(difluoromethyl)-2-(2-hydroxypropan-2-yl)oxazol-5-yl)methanone]	< 500
O=C(c1nnc(-c2ccc(F)cn2)o1)N1CCc2[nH]cnc2[C@@H]1c1ncc2ccccc2n1 [Example 167, (R)-(5-(5-fluoropyridin-2-yl)-1,3,4-oxadiazol-2-yl)(4-(quinazolin-2-yl)-6,7-dihydro-1H-imidazo[4,5-c]pyridin-5(4H)-yl)methanone]	1000 to 5000
CC(O)c1nc(Br)c(C(=O)N2CCc3[nH]cnc3[C@@H]2c2ccc3ccccc3n2)o1 (single isomer, unassigned) [Example 131]	1000 to 5000
O=C(Cc1nc(C(F)(F)F)cs1)N1CCc2[nH]cnc2[C@H]1c1cc2ccccc2cn1 [Example 368, (R)-1-(4-(isoquinolin-3-yl)-6,7-dihydro-1H-imidazo[4,5-c]pyridin-5(4H)-yl)-2-(4-(trifluoromethyl)thiazol-2-yl)ethanone]	< 500
O=C(c1cnn2ccc(Br)cc12)N1CCc2[nH]cnc2[C@H]1c1cc2ccccc2cn1 [Example 356, (R)-(5-bromopyrazolo[1,5-a]pyridin-3-yl)(4-(isoquinolin-3-yl)-6,7-dihydro-1H-imidazo[4,5-c]pyridin-5(4H)-yl)methanone]	< 500
O=C(c1cnn2ccc(Cl)cc12)N1CCc2[nH]cnc2[C@H]1c1cc2ccccc2cn1 [Example 462, (R)-(5-chloropyrazolo[1,5-a]pyridin-3-yl)(4-(isoquinolin-3-yl)-6,7-dihydro-1H-imidazo[4,5-c]pyridin-5(4H)-yl)methanone]	< 500

Now from value to molecule:

AC50 [nM]	SMILES
< 500	O=C(c1ncn2ccccc12)N1CCc2[nH]cnc2[C@H]1c1cc2ccccc2cn1 [Example 353, (R)-imidazo[1,5-a]pyridin-1-yl(4-(isoquinolin-3-yl)-6,7-dihydro-1H-imidazo[4,5-c]pyridin-5(4H)-yl)methanone]
< 500	O=C(c1ocnc1C(F)(F)F)N1CCc2[nH]cnc2C1c1ccc2ccccc2n1 (stereo in doubt) [Example 37, (R)-(4-(quinolin-2-yl)-6,7-dihydro-1H-imidazo[4,5-c]pyridin-5(4H)-yl)(4-(trifluoromethyl)oxazol-5-yl)methanone]
< 500	Cn1nccc1-c1nnc(C(=O)N2CCc3[nH]cnc3[C@H]2c2ncc3ccccc3n2)o1 [Example 203, (S)-(5-(1-methyl-1H-pyrazol-5-yl)-1,3,4-oxadiazol-2-yl)(4-(quinazolin-2-yl)-6,7-dihydro-1H-imidazo[4,5-c]pyridin-5(4H)-yl)methanone]
> 5000	O=C(c1nnc(-c2cnn(CC(F)(F)F)c2)o1)N1CCc2[nH]cnc2[C@@H]1c1ccc2ccccc2n1 (single isomer, unassigned) [Example 68]
< 500	O=C(c1cnn2cc(-c3cncnc3)ccc12)N1CCc2[nH]cnc2[C@H]1c1cc2ccccc2cn1 [Example 487, (R)-(4-(isoquinolin-3-yl)-6,7-dihydro-1H-imidazo[4,5-c]pyridin-5(4H)-yl)(6-(pyrimidin-5-yl)pyrazolo[1,5-a]pyridin-3-yl)methanone]
< 500	CC(F)(F)c1ncc(C(=O)N2CCc3[nH]cnc3[C@H]2c2cc3ccccc3cn2)s1 [Example 376, (R)-(2-(1,1-difluoroethyl)thiazol-5-yl)(4-(isoquinolin-3-yl)-6,7-dihydro-1H-imidazo[4,5-c]pyridin-5(4H)-yl)methanone hydrochloride]
> 5000	Cc1nc(-c2ccccn2)oc1C(=O)N1C[C@H](C)c2[nH]cnc2[C@@H]1c1cc2ccccc2cn1 [Example 404, ((4S,7S)-4-(isoquinolin-3-yl)-7-methyl-6,7-dihydro-1H-imidazo[4,5-c]pyridin-5(4H)-yl)(4-methyl-2-(pyridin-2-yl)oxazol-5-yl)methanone]
< 500	C[C@@H]1CN(C(=O)c2nnc(C(C)(C)C)o2)[C@H](c2cc3ccccc3cn2)c2nc[nH]c21 [Example 430, (5-(tert-butyl)-1,3,4-oxadiazol-2-yl)((4R,7R)-4-(isoquinolin-3-yl)-7-methyl-6,7-dihydro-1H-imidazo[4,5-c]pyridin-5(4H)-yl)methanone]
